Experimental data reported in ChEMBL document CHEMBL5126613, “Novel CA(1-7)M(2-9) Analogs: Synthesis, Characterization, and Antibacterial Evaluation” (ACS Med Chem Lett, 2022).
In brackets after ≈: the same amount, converted by molar mass.

Columns and labels:
[1] = (§1) Selectivity index, ratio of HC50 for hemolytic activity in sheep RBC assessed as 50% hemolysis incubated for 30 mins by microplate reader method to MIC for antibacterial activity against Staphylococcus aureus ATCC 29213 assessed as reduction in bacterial growth measured for 18 to 20 hrs by microbroth dilution method; type: toxicity; settings: sheep red blood cells (erythrocytes), read-out: Selectivity Index
Bacillus subtilis = assay: Antibacterial activity against Bacillus subtilis ATCC 6051 assessed as reduction in bacterial growth measured for 18 to 20 hrs by microbroth dilution method; type: functional; settings: time 18-20 hrs
Escherichia coli = assay: Antibacterial activity against Escherichia coli ATCC 25922 assessed as reduction in bacterial growth measured for 18 to 20 hrs by microbroth dilution method; type: functional; settings: time 18-20 hrs
[2] = Hemolytic activity in sheep RBC assessed as hemolysis incubated for 30 mins by microplate reader method; type: toxicity, cell-based, Ovis aries, Erythrocyte; settings: sheep red blood cells (erythrocytes), read-out: Activity
Staphylococcus aureus = assay: Antibacterial activity against Staphylococcus aureus ATCC 29213 assessed as reduction in bacterial growth measured for 18 to 20 hrs by microbroth dilution method; type: functional; settings: time 18-20 hrs
[3] = as §1, with “Bacillus subtilis” for “Staphylococcus aureus”, “6051” for “29213”; type: toxicity; settings: sheep red blood cells (erythrocytes), read-out: Selectivity Index
[4] = Hemolytic activity in sheep RBC assessed as 50% hemolysis incubated for 30 mins by microplate reader method; type: toxicity, cell-based, Ovis aries, Erythrocyte; settings: sheep red blood cells (erythrocytes)
[5] = as §1, with “Escherichia coli” for “Staphylococcus aureus”, “25922” for “29213”; type: toxicity; settings: sheep red blood cells (erythrocytes), read-out: Selectivity Index
Pseudomonas aeruginosa = assay: Antibacterial activity against Pseudomonas aeruginosa ATCC 27853 assessed as reduction in bacterial growth measured for 18 to 20 hrs by microbroth dilution method; type: functional; settings: time 18-20 hrs
[6] = as §1, with “Pseudomonas aeruginosa” for “Staphylococcus aureus”, “27853” for “29213”; type: toxicity; settings: sheep red blood cells (erythrocytes), read-out: Selectivity Index
Trypsin = Trypsin (Homo sapiens, UniProt P07477+P07478+P35030); assay: Stability of compound assessed as trypsin (unknown origin)-mediated compound degradation measured at 3 mins by LCMS analysis; type: ADME, protein assay; settings: 0.05 h
Erythrocyte = assay: Hemolytic activity in sheep RBC assessed as hemolysis at 1000 ug/ml incubated for 30 mins by microplate reader method; type: toxicity, cell-based, Ovis aries; settings: 0.5 h, dose 1000 µg/ml

Row | Compound | selectivity ratio at 30 min [1] | MIC (Bacillus subtilis) | MIC (Escherichia coli) | hemolysis at 0.5 h [2] | MIC (Staphylococcus aureus) | selectivity ratio at 30 min [3] | HC50 at 0.5 h [4] | selectivity ratio at 30 min [5] | MIC (Pseudomonas aeruginosa) | selectivity ratio at 30 min [6] | Stability (Trypsin) | Activity (Erythrocyte)
1 | H-KWKLFKKIGAVLRVL-NH2 | 70 | 32 µg/mL | 4 µg/mL | 10% | 4 µg/mL | 9 | 280 µg/mL | 70 | 8 µg/mL | 35 |  | 
2 | H-KWKLFKKIGAVLKVL-NH2 | 173 | 32 µg/mL | 4 µg/mL | 10% | 4 µg/mL | 22 | 690 µg/mL | 173 | 8 µg/mL | 86 | Unstable | 
3 | CC[C@H](C)[C@H](NC(=O)[C@H](CCCN)NC(=O)[C@H](CCCN)NC(=O)[C@H](Cc1ccccc1)NC(=O)[C@H](CC(C)C)NC(=O)[C@H](CCCN)NC(=O)[C@H](Cc1c[nH]c2ccccc12)NC(=O)[C@@H](N)CCCN)C(=O)NCC(=O)N[C@@H](C)C(=O)N[C@H](C(=O)N[C@@H](CC(C)C)C(=O)N[C@@H](CCCN)C(=O)N[C@H](C(=O)N[C@@H](CC(C)C)C(N)=O)C(C)C)C(C)C |  | 32 µg/mL (≈ 18.8 µM) | 4 µg/mL (≈ 2.35 µM) |  | 8 µg/mL (≈ 4.71 µM) |  |  |  | 8 µg/mL (≈ 4.71 µM) |  |  | 
4 | H-RWKLFKKIGAVLKVL-NH2 | 113 | 32 µg/mL | 4 µg/mL | 10% | 4 µg/mL | 14 | 450 µg/mL | 113 | 8 µg/mL | 56 |  | 
5 | H-RWRLFRRIGAVLRVL-NH2 | 29 | 16 µg/mL | 4 µg/mL |  | 8 µg/mL | 14 | 230 µg/mL | 58 | 4 µg/mL | 58 |  | Toxic
